Results: PubChem BioAssay (NCI)
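Dose response: 5 concentrations. Exposure: 48 h. Format: 96-well plates. Endpoint: linear interpolation; highest concentration if not reached. GI50: concentration for 50% inhibition of growth. TGI: total growth inhibition.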

Assays:
Experiment in all cases: NCI anticancer screen, dose series, 48 h
[1] = tested on: A549 NSCLC
[2] = tested on: CAKI-1 renal
[3] = tested on: HCC-2998 colon
[4] = tested on: HT29 colon
[5] = tested on: SK-MEL-2 melanoma
[6] = tested on: SK-MEL-5 melanoma
[7] = tested on: SR leukemia
[8] = tested on: SW-620 colon
[9] = tested on: TK-10 renal
[10] = tested on: CCRF-CEM leukemia

| SMILES | TGI [1] [µM] | TGI [2] [µM] | TGI [3] [µM] | TGI [4] [µM] | TGI [5] [µM] | TGI [6] [µM] | TGI [7] [µM] | TGI [8] [µM] | TGI [9] [µM] | TGI [10] [µM] | GI50 [7] [µM] | GI50 [1] [µM] | GI50 [10] [µM] | GI50 [3] [µM] | GI50 [4] [µM] | GI50 [5] [µM] | GI50 [6] [µM] | GI50 [9] [µM] | GI50 [2] [µM] | GI50 [8] [µM] |
| --- | --- | --- | --- | --- | --- | --- | --- | --- | --- | --- | --- | --- | --- | --- | --- | --- | --- | --- | --- | --- |
| COc1cc(-c2nc3nc(N4CCN(C)CC4)ccc3[nH]2)c(OC)c2[nH]c(COC(C)=O)nc12 | > 100 | > 100 | 30.6 | 61.8 | 47.4 | 35.6 | > 100 | > 100 | > 100 |  |  |  |  |  |  |  |  |  |  |  |
| CC(=O)Nc1ccc(-c2nnc(SCC(=O)Nc3ccccc3C)o2)cc1 | > 100 |  |  | > 100 | > 100 | > 100 | > 100 | > 100 | > 100 | > 100 |  |  |  |  |  |  |  |  |  |  |
| COc1cc(C2S/C(=C/c3ccccc3)C(=O)N2c2cccc([N+](=O)[O-])c2)cc(OC)c1OC (centres undefined) | > 100 | > 100 | > 100 | > 100 | 67.9 | > 100 | > 100 |  | > 100 |  |  |  |  |  |  |  |  |  |  |  |
| CC(C)(C)OC(=O)NCC(=O)N1CCCN(C(=O)CNC(=O)OC(C)(C)C)CC1 | > 100 | > 100 | > 100 | > 100 | > 100 | > 100 |  | > 100 | > 100 |  |  |  |  |  |  |  |  |  |  |  |
| Nc1nc2cc(CNc3ccc(C(=O)NC(CCC(=O)O)C(=O)O)cc3)ccc2nc1-c1ccccc1 (centres undefined) | > 10 | > 10 | > 10 | > 10 | > 10 | > 10 |  | > 10 | > 10 | > 10 |  |  |  |  |  |  |  |  |  |  |
| COc1ccc(/C=N/n2c(Cc3ccc(Cl)cc3)n[nH]c2=O)c(OC)c1 | > 100 | > 100 | > 100 | 75.1 | > 100 |  |  | > 100 | 52.2 | > 100 |  |  |  |  |  |  |  |  |  |  |
| COc1ccc(C2c3cc4c(cc3OC(N3CCCCC3)C2C)OCO4)cc1 (centres undefined) | > 100 | 84.9 |  | > 100 | > 100 | > 100 | > 100 | > 100 | > 100 | > 100 |  |  |  |  |  |  |  |  |  |  |
| COc1nc2[nH]ccc2c(=O)n1C | > 100 | 57.6 |  | > 100 | > 100 | > 100 | > 100 | > 100 | > 100 | > 100 |  |  |  |  |  |  |  |  |  |  |
| c1ccc(Nc2nnc(-c3nsc4ccccc34)o2)cc1 | > 100 |  | > 100 | > 100 | > 100 | > 100 | > 100 | > 100 | > 100 | > 100 |  |  |  |  |  |  |  |  |  |  |
| CC(C)(NC1=NCCO1)c1ccccc1 | > 100 | > 100 | > 100 | > 100 | > 100 | > 100 |  | > 100 | > 100 |  |  |  |  |  |  |  |  |  |  |  |
| O=C(/C=C/c1ccccc1O)/C=C/c1ccccc1O | 6.38 | 3.21 |  | 4.85 | 23.1 | 2.8 | > 100 | 4.36 | 3.27 |  |  |  |  |  |  |  |  |  |  |  |
| CC(=O)OCC1OC(c2nnc(C)o2)=CC(OC(C)=O)C1OC(C)=O (centres undefined) | > 100 | > 100 |  | > 100 |  | > 100 | > 100 | > 100 | > 100 | > 100 |  |  |  |  |  |  |  |  |  |  |
| COC1/C=C/C(C)C(C(C)C(OC)C(C)CCC(=O)C(C)C(C/C=C/N(C)C=O)OC)OC(=O)/C=C/C=C(\C)CC(OC)C(OC)C2=CC(=O)O[C@@H](C(C)C(OC)CC(OC)/C=C/C(C)C(O)C1)[C@H]2O (some centres undefined) | 0.781 |  | 0.359 | 2.15 | 0.388 | 0.206 | > 31.6 | 0.343 | 0.166 |  |  |  |  |  |  |  |  |  |  |  |
| CC1(C)[C@@H]2C[C@H]1C(Cc1cccc(C[C@H]3c4cc(-c5ccccn5)ncc4[C@H]4C[C@@H]3C4(C)C)c1)c1cc(-c3ccccn3)ncc12 (some centres undefined) | > 100 | > 100 | > 100 | > 100 | > 100 | > 35.8 | 2.63 | > 45.6 | > 100 |  | 0.439 |  |  |  |  |  |  |  |  |  |
| C[C@H](CCC1=NCCN1)[C@H]1CC[C@H]2[C@@H]3CC[C@@H]4C[C@H](O)CC[C@]4(C)[C@H]3C[C@H](O)[C@]12C |  | 43.8 | 27.6 | 22.3 | 26.7 | 24.5 |  | 44.6 | 26.9 | 30.4 |  |  |  |  |  |  |  |  |  |  |
| CCOC(=O)C(C)c1nc2cc(N3CCN(C)CC3)c(F)cc2[nH]c1=O (centres undefined) | > 100 | > 100 |  | > 100 | > 100 | > 100 | > 100 | > 100 |  | > 100 |  |  |  |  |  |  |  |  |  |  |
| O=C(c1ccccc1)N1C(=S)N(c2ccc([N+](=O)[O-])cc2)C(=Nc2ccccc2)C1=Nc1ccccc1 | > 100 | > 100 | > 100 | > 100 | > 100 | > 100 | > 100 | > 100 | > 100 |  |  |  |  |  |  |  |  |  |  |  |

| SMILES | TGI [1] [µM] | TGI [2] [µM] | TGI [3] [µM] | TGI [4] [µM] | TGI [5] [µM] | TGI [6] [µM] | TGI [7] [µM] | TGI [8] [µM] | TGI [9] [µM] | TGI [10] [µM] | GI50 [7] [µM] | GI50 [1] [µM] | GI50 [10] [µM] | GI50 [3] [µM] | GI50 [4] [µM] | GI50 [5] [µM] | GI50 [6] [µM] | GI50 [9] [µM] | GI50 [2] [µM] | GI50 [8] [µM] |
| --- | --- | --- | --- | --- | --- | --- | --- | --- | --- | --- | --- | --- | --- | --- | --- | --- | --- | --- | --- | --- |
| CC(C)CCC[C@@H](C)[C@H]1CCC2C3=CCC4C(=O)C=CC(=O)C4C3CC[C@@]21C (some centres undefined) |  |  | 0.855 | > 100 |  | 2.66 | > 100 |  | > 100 | > 100 | 0.263 | 0.0836 | 0.179 | 0.274 | 0.839 | 1.14 | 0.419 | 2.65 |  |  |
| OCC(O)C(O)C(O)C(/C=N\Nc1ncnc2ccc(Br)cc12)=N/Nc1ncnc2ccc(Br)cc12 (centres undefined) | > 100 | > 100 |  | > 100 | > 100 | 18 | > 100 | > 100 | > 100 |  |  |  |  |  |  |  |  |  |  |  |
| CS(=O)(=O)O.[Ag] | 33.8 | 34.2 | 28.8 | 39.3 | 30.2 | 18.3 |  | 19.5 | 7.74 | 6.64 |  |  |  |  |  |  |  |  |  |  |
| CCCCCCOc1ccc(NC2=C(Cl)C(=O)c3ncccc3C2=O)cc1 | 8.96 |  |  | > 10 |  | 2.92 |  | 5.38 | > 10 | 5.96 |  |  |  |  |  |  |  |  |  |  |
| O=C(O)C1SCCS1 | > 100 |  | > 100 | > 100 |  | > 100 | > 100 | > 100 | > 100 | > 100 |  |  |  |  |  |  |  |  |  |  |
| COc1ccc2c(c1)CC[C@@H]1[C@@H]2CC[C@]2(C)C(=O)/C(=C/c3cc(OC)c(OC)c(OC)c3)C[C@@H]12 | > 100 | 63.3 | > 100 |  | 41.6 | > 100 | > 100 | > 100 | 34.2 |  |  |  |  |  |  |  |  |  |  |  |
| C/C=C\C(CC(=O)NCCC1CN(C(=O)c2ccccc2)c2ccccc21)CC(=O)OC (centres undefined) | > 100 | > 100 | > 100 | > 100 | > 100 | > 100 |  | > 100 | > 100 |  |  |  |  |  |  |  |  |  |  |  |
| N#Cc1c(N2CCN(c3ccc([N+](=O)[O-])cc3)CC2)[n+](=O)c2ccc(Cl)cc2n1[O-] | > 24.4 | 2.7 | 4.4 | 7.31 | 8.54 |  |  | 1.81 | 8.86 | 4.2 |  |  |  |  |  |  |  |  |  |  |
| COc1ccc2c(c1)-c1oc3ccccc3c(=O)c1CO2 | > 100 | 50.6 | > 100 | > 100 | 83.3 | 36.2 |  | > 100 | > 100 | > 100 |  |  |  |  |  |  |  |  |  |  |
| O=C(C#Cc1cn(C2CC(O)C(CO)O2)c(=O)[nH]c1=O)c1ccccc1 (centres undefined) | > 100 | > 100 | > 100 | > 100 | > 100 | > 100 | > 100 | 50.4 | > 100 |  |  |  |  |  |  |  |  |  |  |  |
| Nc1nc(SCCC/C=C/I)nc2c1ncn2C1OC(CO)C(O)C1O (centres undefined) | > 202 | > 202 |  | > 202 | > 202 | > 202 | > 202 | > 202 | > 202 | > 202 |  |  |  |  |  |  |  |  |  |  |
| CCOC12SC(=Nc3ccc(C)cc3)NN1C(=S)N(C)N=C2C (centres undefined) | > 100 |  |  | > 100 |  | > 100 | > 100 | > 100 |  | > 100 |  |  |  |  |  |  |  |  |  |  |
| COC(=O)CCN(CCC(=O)OC)C1CC1 | > 100 |  | > 100 | > 100 |  | > 100 | > 100 | > 100 | > 100 | > 100 |  |  |  |  |  |  |  |  |  |  |
| O=C(Nc1cccc(-n2ccc3c(NC(=O)c4ccccc4)nccc32)c1)c1cc(N2CCOCC2)cc(C(F)(F)F)c1 |  |  | > 100 | 0.446 | 3.82 | 0.249 |  | > 100 | > 95.5 |  | 0.0583 | 0.142 |  | 0.462 | 0.0312 | 0.167 | 0.0671 | 0.435 | 0.0641 | 0.0484 |
| CN1CC2CC(C1)c1cccc(=O)n1C2 (centres undefined) | > 100 | > 100 | > 100 | > 100 | > 100 | > 100 |  |  | > 100 |  |  |  |  |  |  |  |  |  |  |  |
| CN1CCCCC(C(O)(c2ccccc2)c2ccccc2)C1=O (centres undefined) | > 100 |  | > 100 | > 100 | > 100 | > 100 | > 100 | 25.9 | > 100 | > 100 |  |  |  |  |  |  |  |  |  |  |
| CC(=O)NC1=C(C)C(=O)c2c(nc3n2CC[C@H]3OC(C)=O)C1=O | 24.8 | 8.22 | 7.73 | 8.13 | 3.52 | 8.07 |  | 3.26 | 13.9 | > 100 |  |  |  |  |  |  |  |  |  |  |
